Results: BindingDB's records for doi:10.1021/acschembio.7b00124 (University of Helsinki, 2017)
Where a SMILES comes first, the peptide text is derived from it. Bridges are numbered along the chain shown (N, C = ends). [ ]: non-standard residue; d: D form. ξ: configuration not given here. Thr(3ξ) = CC(O)[C@H](N)C(=O)O; hLys = NCCCCC[C@H](N)C(=O)O

Key:
Serine protease 1 = target: T1, Serine protease 1 (Bos taurus, UniProt P00760); test: Protease Inhibition Assays; details: 37 °C
T1 sequence (P00760 whole entry): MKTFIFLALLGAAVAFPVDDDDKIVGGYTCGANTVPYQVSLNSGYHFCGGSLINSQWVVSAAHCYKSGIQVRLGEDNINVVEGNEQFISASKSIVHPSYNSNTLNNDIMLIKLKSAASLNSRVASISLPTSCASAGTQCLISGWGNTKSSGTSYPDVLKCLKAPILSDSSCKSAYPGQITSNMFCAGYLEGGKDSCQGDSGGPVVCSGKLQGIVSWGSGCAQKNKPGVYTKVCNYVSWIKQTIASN
Description: (§1) The inhibition assays were performed in 96-well microtiter plates as follows: 30 uL of the enzyme solution (trypsin [100 ug/mL] or elastase [1.5 U/mL]) and 60 uL of the buffer (50 mM Tris-HCl, 20 mM CaCl2 at pH 7.5) were pipetted into a series of six wells. A total of 10 uL of a 2000 uM peptide solution (microviridin variant) was then added to well 1 and serially diluted up to well 5; well 6 was used as the control. After completing the serial dilution of the sample, 10 uL was taken from well 5 and discarded to maintain the same volume in all wells. The plates were then incubated for 5 min at 37 °C, and subsequently 90 uL of the substrate solution (trypsin assay, N-benzoyl-DL-arginine-4-nitroanilide hydrochloride (BAPNA) [2.17 mg mL-1]; elastase assay, succinyl-Ala-Ala-Ala-p-nitroanilide (Suc-ALA3-pNA) [1 mg mL-1]) was added to each well. The enzymatic activity was measured spectrophotometrically (Varioscan Flash, Thermo Scientific) at 410 nm after incubation at 37 °C for 15 m

[1] = target: Chymotrypsin-like elastase family member 1 (Bos taurus, UniProt Q28153); test: Protease Inhibition Assays; details: 37 °C
Chymotrypsin-like elastase family member 1, sequence (Q28153 whole entry): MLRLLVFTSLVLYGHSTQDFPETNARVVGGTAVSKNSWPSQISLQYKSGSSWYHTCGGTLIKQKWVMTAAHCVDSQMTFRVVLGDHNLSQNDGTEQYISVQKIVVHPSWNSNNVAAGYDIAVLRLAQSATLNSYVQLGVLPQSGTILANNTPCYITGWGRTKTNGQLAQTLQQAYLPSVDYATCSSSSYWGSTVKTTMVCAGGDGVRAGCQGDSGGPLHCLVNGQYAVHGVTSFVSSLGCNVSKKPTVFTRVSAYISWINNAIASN
Description: as §1

Row | IC50 (Serine protease 1) | IC50 [1] | Structure (SMILES)
1 | 28.4 nM | – | CC(C)[C@H](NC(=O)[C@@H](N)[C@@H](C)O)C(=O)N[C@@H]1C(=O)N[C@@H](CCCNC(=N)N)C(=O)N[C@H]2CCCCNC(=O)C[C@@H](C(=O)N[C@@H](Cc3ccc(O)cc3)C(=O)O)NC(=O)[C@@H]3CCC(=O)OC[C@H](NC(=O)[C@@H]4CCCN4C(=O)[C@H](Cc4ccc(O)cc4)NC2=O)C(=O)N[C@@H](CC(=O)OC1C)C(=O)N[C@@H](Cc1c[nH]c2ccccc12)C(=O)N3 (some centres undefined) [MdnA3] (H-TV[Thr(3ξ)]RKYPSDWEDY-OH; ester 3-9, 8-11; lactam 5-12)
2 | 21.5 nM | – | CC(C)[C@H](NC(=O)[C@@H](N)Cc1ccc(O)cc1)C(=O)N[C@@H]1C(=O)N[C@@H](CCCCCN)C(=O)N[C@H]2CCCCNC(=O)CC[C@@H](C(=O)N[C@@H](Cc3ccc(O)cc3)C(=O)O)NC(=O)[C@@H]3CCC(=O)OC[C@H](NC(=O)[C@@H]4CCCN4C(=O)[C@H](Cc4ccc(O)cc4)NC2=O)C(=O)N[C@@H](CC(=O)OC1C)C(=O)N[C@@H](Cc1c[nH]c2ccccc12)C(=O)N3 (some centres undefined) [MdnA6] (H-YV[Thr(3ξ)][hLys]KYPSDWEEY-OH; ester 3-9, 8-11; lactam 5-12)
3 | – | 1050 nM | CC(C)C[C@@H]1NC(=O)[C@@H](NC(=O)[C@H](CC(N)=O)NC(=O)[C@H](CCC(N)=O)NC(=O)[C@@H](N)Cc2ccc(O)cc2)C(C)OC(=O)C[C@@H]2NC(=O)[C@@H]3COC(=O)CC[C@H](NC(=O)[C@H](Cc4c[nH]c5ccccc45)NC2=O)C(=O)N[C@H](C(=O)N[C@@H](Cc2ccc(O)cc2)C(=O)O)CCC(=O)NCCCC[C@H](NC1=O)C(=O)N[C@@H](Cc1ccc(O)cc1)C(=O)N1CCC[C@H]1C(=O)N3 (some centres undefined) [MdnA7] (H-YQN[Thr(3ξ)]LKYPSDWEEY-OH; ester 4-10, 9-12; lactam 6-13)
4 | – | 21800 nM | CC(C)C[C@@H]1NC(=O)[C@@H](NC(=O)[C@H](C)N)C(C)OC(=O)C[C@@H]2NC(=O)[C@@H]3COC(=O)CC[C@H](NC(=O)[C@H](Cc4c[nH]c5ccccc45)NC2=O)C(=O)N[C@H](C(=O)N[C@@H](Cc2ccc(O)cc2)C(=O)O)CCC(=O)NCCCC[C@H](NC1=O)C(=O)N[C@@H](Cc1ccc(O)cc1)C(=O)N1CCC[C@H]1C(=O)N3 (some centres undefined) [MdnA8] (H-A[Thr(3ξ)]LKYPSDWEEY-OH; ester 2-8, 7-10; lactam 4-11)
